# Source: publication PMC12386934, “Characteristics and Potential of KSL, KSL-W, and Dadapin-1 Antimicrobial Peptides for Preventing Infections of Orthopedic Prosthetic Devices: Identifying the Most Robust Candidate” (International Journal of Molecular Sciences, 2025)
# Where a SMILES comes first, the peptide text is derived from it.
# How the values were obtained:
# [1] = test system: S. epidermidis cra4029 (SE 02); format: cell-based
# Excerpt: (§1) The experimental scheme reported in Figure 6 helped to simplify and optimize the in vitro testing of the antibacterial activity of the different AMPs. The initial transparent microtiter plate for the determination of the minimum inhibitory concentration (MIC) by optical density (OD) measurement was conveniently used as a starting point not only for the alterative determination of the MIC by luminescence but also for the minimum bactericidal concentration (MBC) and for the minimum biofilm inhibitory concentration (MBIC), as explained below. For every test peptide, at least three independent experiments were performed on each bacterial strain per test condition (100% MHB and 20% MHB). The sole exception to this rule was when MIC values were on rare occasions found to be greater than 500 µg/mL. Under these circumstances, two consecutive experiments were performed to confirm the results. In this case, the antibacterial activity was considered insignificant and the third experiment was generally considered unnecessary.
# (§2) The antibacterial properties of the test AMPs were assayed under two distinct conditions of bacterial culture: (i) with bacteria cultured in undiluted Mueller–Hinton II Broth (MHB II) and (ii) with bacteria cultured in diluted MHB II as earlier described in Campoccia et al.. Briefly, a few colonies of each bacterial strain, taken from overnight cultures on Mueller–Hinton Agar plates (MHA, PO50007A, ThermoScientific, Thermo Fisher Scientific, Segrate, Italy), were resuspended in Mueller–Hinton II Broth (MHB II, 24107, Liofilchem, Roseto degli Abruzzi, Italy), either undiluted or at a 20% dilution in deionized water. The concentration of bacteria was adjusted to approximately 10^8 CFU/mL, as estimated by optical density reading at 625 nm, using a Hewlett Packard G1103A spectrophotometer (Waldbronn, Germany). The bacterial suspension was further diluted 1:100 in 100% or 20% MHB II.
# (§3) Serial 1:2 dilutions of all the test peptides were prepared in sterile deionized water starting from a stock solution of 1 mg/mL. Microtiter plates (96-Well CytoOne® Plate, CC7672-7596, Starlab S.r.l., Milano, Italy) were prepared by adding a volume of 100 µL of inoculum to 100 µL of treatment. Each AMP dilution was assayed in triplicate; each microplate included triplicate wells for the blank (100 µL of sterile distilled water and 100 µL of sterile MHB II), and 3 to 6 wells for reference control of 100% growth (100 µL of sterile deionized water and 100 µL of MHB II inoculated with the bacterium). Positive controls were performed in triplicate wells with 100 µL of a 10 mg/mL gentamicin solution (G1272, Sigma Aldrich, Milan, Italy) and with 100 µL of a solution containing 10,000 units/mL of penicillin and 10,000 µg/mL of streptomycin (penicillin–streptomycin, 15140-122, Life Technologies, Monza, Italy).
# (§4) After a 1-day incubation at 37 °C, the MIC was determined by two distinct methods: (1) optical density measurement and (2) bioluminescence reading. In the first case, the optical density of the microtiter plates was read directly at a wavelength of 600 nm and the MIC was estimated from the curves obtained by plotting the OD measurements. For the bioluminescence reading, after gentle resuspension, 100 µL of each treated culture was transferred to a new 96-well non-treated plate (236105/237105, Life Technologies, Monza, Italy) and the metabolic activity was determined by the kit Bac-Titer Glo Microbial Cell Viability Assay (G8231, Promega Italia S.r.l, Milan, Italy). Optical density and bioluminescence were read by a Modulus II multifunction plate reader (Turner BioSystems, Sunnyvale, CA, USA) or, alternatively, by an Infinite M Plex (Tecan Group Ltd., Männedorf, Switzerland). As earlier described in [24], in the case of luminescence, the MIC was identified from the curves of growth inhibition as the first concentration leading to a 1-log reduction in bacterial growth (i.e., 90% growth inhibition). […]
# [2] = test system: E. faecalis cra4033 (EF 02); format: cell-based
# Excerpt: as §1, §2, §3, §4
smiles,measurement,setting,value
CC(C)[C@H](NC(=O)[C@H](Cc1c[nH]c2ccccc12)NC(=O)[C@H](Cc1ccccc1)NC(=O)[C@@H](NC(=O)[C@@H](NC(=O)[C@H](CCCCN)NC(=O)[C@@H](N)CCCCN)C(C)C)C(C)C)C(=O)N[C@@H](CCCCN)C(=O)N[C@@H](Cc1ccccc1)C(=O)N[C@@H](CCCCN)C(=O)O [KSL-W] (H-KKVVFWVKFK-OH),MIC,[1],0.49 to 0.98 µg/mL
same,MIC,[2],15.63 to 31.25 µg/mL
